Experimental data: patent US7452894B2, “Purine derivatives as purinergic receptor antagonists” (Vernalis Research Limited, priority 2001, dated 2008)

| melting point | SMILES |
| --- | --- |
| > 300 °C (dec.) | CC(C)COC(=O)n1cnc2c(-c3ccco3)nc(N)nc21 [Example 20, 2-Methylpropyl 2-amino-6-(2-furyl)-9H-purine-9-carboxylate] |
| 212.6 to 213 °C | Cc1ccc(S(=O)(=O)n2cnc3c(-c4ccco4)nc(N(C)C)nc32)cc1 [Example 56, N,N-Dimethyl-6-(2-furyl)-9-(4-methylphenylsulphonyl)-9H-purine-2-amine] |
| 278.5 to 280.4 °C | COc1cccc(NC(=O)Cn2cnc3c(-c4ccco4)nc(N)nc32)c1 [Example 231, 2-Amino-6-(2-furyl)-N-(3-methoxyphenyl)-9H-purine-9-acetamide] |
| 301.1 to 302.1 °C | Nc1nc(-c2ccco2)c2ncn(Cc3ccc(C(=O)O)cc3)c2n1 [Example 216, 4-(2-Amino-6-(2-furyl)-9H-purine-9-ylmethyl)benzoic acid] |
| > 300 °C (dec.) | Nc1nc(-c2ccco2)c2ncn(CC(=O)O)c2n1 [Example 73, 2-Amino-6-(2-furyl)-9H-purine-9-acetic acid] |
| > 200 °C (dec.) | Cc1nc(-c2nc(N)nc3[nH]cnc23)no1 [Example 90, 6-(5-Methyl-[1,2,4]-oxadiazol-3-yl)-1H-purine-2-amine] |
| 295 °C (dec.) | CC(C)(C)NC(=O)n1cnc2c(-c3ccco3)nc(N)nc21 [Example 21, 2-Amino-N-tert-butyl-6-(2-furyl)-9H-purine-9-carboxamide] |
| 81.5 to 82.2 °C | CN(C)c1nc(-c2ccco2)c2ncn(COCC[Si](C)(C)C)c2n1 |
| > 300 °C (dec.) | CC(C)NC(=O)n1cnc2c(-c3ccco3)nc(N)nc21 [Example 30, 2-Amino-6-(2-furyl)N-isopropyl-9H-purine-9-carboxamide] |
| 160 °C (dec.) | Nc1nc(-c2ccco2)c2ncn(CCN3C(=O)c4ccccc4C3=O)c2n1 [Example 174, 6-(2-Furyl)-9-(2-phthalimidoethyl)-9H-purine-2-amine] |
| 283.6 to 283.7 °C | Nc1nc(-c2ccco2)c2ncn(CC(=O)N3CCCC3)c2n1 [Example 88, 6-(2-Furyl)-9-(2-oxo-2-(1-pyrrolidinyl)ethyl)-9H-purine-2-amine] |
| 276.4 to 276.9 °C | Nc1nc(-c2ccco2)c2ncn(CC(=O)NCc3ccco3)c2n1 [Example 218, 2-Amino-6-(2-furyl)-N-(2-furylmethyl)-9H-purine-9-acetamide] |
| 242.5 to 243.6 °C | Nc1nc(-c2ccco2)c2ncn(CC(=O)Nc3ccccn3)c2n1 [Example 122, 2-Amino-6-(2-furyl)-N-(2-pyridyl)-9H-purine-9-acetamide] |
| 175.4 to 176.1 °C | CC(C)CC(=O)n1cnc2c(-c3ccco3)nc(N)nc21 [Example 33, 6-(2-Furyl)-9-(3-methylbutyryl)-9H-purine-2-amine] |
| 247 to 248 °C | Cc1ccsc1-c1nc(N)nc2[nH]cnc12 [Example 150, 6-(3-Methyl-2-thienyl)-1H-purine-2-amine] |
| 227.1 to 228.1 °C | OCCNc1nc(-c2ccco2)c2nc[nH]c2n1 [Example 5, N-(2-Hydroxyethyl)-6-(2-furyl)-1H-purine-2-amine] |
| 277 °C (dec.) | Nc1nc(-c2ccco2)c2ncn(CC(=O)NCc3ccc(Cl)cc3)c2n1 [Example 144, 2-Amino-N-(4-chlorobenzyl)-6-(2-furyl)-9H-purine-9-acetamide] |
| 205.3 to 205.4 °C | COc1cc(Cn2cnc3c(-c4ccco4)nc(N)nc32)cc(OC)c1 [Example 219, 9-(3,5-Dimethoxybenzyl)-6-(2-furyl)-9H-purine-2-amine] |
| 299.8 °C | Cc1ccc(-c2nc(N)nc3c2ncn3Cc2ccccc2F)nc1 [Example 243, 9-(2-Fluorobenzyl)-6-(5-methyl-2-pyridinyl)-9H-purine-2-amine] |
| 190.5 to 190.6 °C | Nc1nc(-c2cncs2)c2ncn(Cc3ccccc3F)c2n1 [Example 267, 9-(2-Fluorobenzyl)-6-(thiazol-5-yl)-9H-purine-2-amine] |
